Converted amounts (≈) assume the structure as drawn. Structures can show the parent of a compound that is named as a salt.
Experiments:
Assay in all cases: MIC
[1] = test system: E. cloacae 5D63-2; settings: Enterobacter cloacae, 5D632
[2] = test system: P. aeruginosa 4au542; settings: Pseudomonas aeruginosa, 4AU542, P. aeruginosa 4au542; Table 5
[3] = test system: E. coli GN5482; settings: Escherichia coli, GN5482, E. coli GN5482; Table 5
[4] = test system: C. freundii GN7391; settings: Citrobacter freundii, GN7391, C. freundii GN7391
[5] = test system: C. freundii 5D60-1; settings: Citrobacter freundii, 5D601
[6] = test system: K. pneumoniae 4at521; settings: Klebsiella pneumoniae, 4AT521
[7] = test system: C. freundii 1U589; settings: Citrobacter freundii, 1U589
[8] = test system: P. cepacia OF189; settings: Burkholderia cepacia, OF189, P. cepacia OF189; Table 5
[9] = test system: S. aureus Smith; settings: Staphylococcus aureus, Table 5
[10] = test system: C. freundii 1R524; settings: Citrobacter freundii, 1R524
[11] = test system: P. maltophilia OF247; settings: Stenotrophomonas maltophilia, Table 5
[12] = test system: E. coli ML4707; settings: Escherichia coli, ML4707, E. coli ML4707; Table 5
[13] = test system: P. aeruginosa GN10362; settings: Pseudomonas aeruginosa, GN10362
[14] = test system: P. aeruginosa 5D58-1; settings: Pseudomonas aeruginosa, 5D581, P. aeruginosa 5D58-1; Table 5
[15] = test system: C. freundii 1R527; settings: Citrobacter freundii, 1R527
[16] = test system: E. cloacae 1V25; settings: Enterobacter cloacae
[17] = test system: C. freundii 1R526; settings: Citrobacter freundii, 1R526
[18] = test system: C. freundii 1R523; settings: Citrobacter freundii, 1R523
[19] = test system: E. cloacae 908RN; settings: Enterobacter cloacae
[20] = test system: E. colacae GN7471; settings: Table 5
[21] = test system: E. cloacae 5D52-2; settings: Enterobacter cloacae, 5D522
[22] = test system: P. vulgaris GN7919; settings: Proteus vulgaris, GN7919
[23] = test system: S. aureus IAA498; type: cell-based; settings: Staphylococcus aureus, Table 5
Description: (§1) The minimum inhibition concentrations (MIC) of the compounds obtained in the respective examples described above were measured according to the standard method of Japanese Chemotherapy Association.

[24] = test system: E. cloacae 1Y247; type: cell-based; settings: Enterobacter cloacae, Table 6, read-out: MIC
Description: as §1

[25] = test system: C. freundii 1U692; settings: Citrobacter freundii, 1U692
[26] = test system: S. marcescens GN10857; settings: Serratia marcescens, GN10857, S. marcescens GN10857; Table 5

Cc1nc2nc(C(=O)O)cc(SCC3=C(C(=O)O)N4C(=O)C(NC(=O)C(=NOC(C)(C)C(=O)NNC(=O)c5ccc(O)c(O)c5)c5csc(N)n5)C4SC3)n2n1 (stereo not drawn) [Example 37] gave an MIC [1] of 0.2 µg/mL (≈ 0.242 µM), an MIC [2] of 0.2 µg/mL (≈ 0.242 µM) and an MIC [3] of 0.012 µg/mL (≈ 0.0145 µM). It also gave an MIC ([4]; Table 5) of 1.56 µg/mL (≈ 1.88 µM), an MIC ([4]; Table 6) of 3.13 µg/mL (≈ 3.78 µM) and an MIC [5] of 0.39 µg/mL (≈ 0.471 µM). The MIC [6] was less than 0.006 µg/mL, the MIC [7] was 0.2 µg/mL (≈ 0.242 µM) and the MIC [8] was less than 0.006 µg/mL. For the same molecule, the MIC [9] was 25 µg/mL (≈ 30.2 µM), the MIC [10] was 0.1 µg/mL (≈ 0.121 µM) and the MIC [11] was 0.39 µg/mL (≈ 0.471 µM). The MIC [12] was 0.012 µg/mL (≈ 0.0145 µM), the MIC [13] was 0.05 µg/mL (≈ 0.0604 µM) and the MIC [14] was 0.78 µg/mL (≈ 0.942 µM). The MIC [15] was 0.1 µg/mL (≈ 0.121 µM), the MIC [16] was 6.25 µg/mL (≈ 7.55 µM) and the MIC [17] was 0.1 µg/mL (≈ 0.121 µM). It also gave an MIC [18] of 0.1 µg/mL (≈ 0.121 µM), an MIC ([19]; E. cloacae 908RN, Table 6) of 0.78 µg/mL (≈ 0.942 µM) and an MIC ([19]; E. colacae 908RN, Table 5) of 0.78 µg/mL (≈ 0.942 µM). For the same molecule, the MIC [20] was 0.78 µg/mL (≈ 0.942 µM), the MIC [21] was 0.1 µg/mL (≈ 0.121 µM) and the MIC [22] was 0.78 µg/mL (≈ 0.942 µM). The MIC [23] was 25 µg/mL (≈ 30.2 µM), the MIC [24] was 3.13 µg/mL (≈ 3.78 µM) and the MIC [25] was 0.2 µg/mL (≈ 0.242 µM). The MIC [26] was 0.2 µg/mL (≈ 0.242 µM).
For CC(C)(ON=C(C(=O)NC1C(=O)N2C(C(=O)O)=C(CSc3c4c(nc5nc(C(=O)O)nn35)CCC4)CSC12)c1csc(N)n1)C(=O)NNC(=O)c1ccc(O)c(O)c1 (stereo not drawn) [Example 33, 7-{2-[2-amino-1,3-thiazol-4-yl]-2-[1-(3-(3,4-dihydroxybenzoyl)carbazoyl)-1-methylethoxyimino]acetamide}-3-[(2-carboxy-6,7-dihydro-5H-cyclopenta[f]-s-triazolo[1,5-a]pyrimidin-8-yl)thiomethyl]-3-cephem-4-carboxylic acid.hydrochloride], the MIC [1] was 0.1 µg/mL, the MIC [2] was 0.2 µg/mL and the MIC [3] was less than 0.006 µg/mL. For the same molecule, the MIC ([4]; Table 5) was 0.39 µg/mL, the MIC ([4]; Table 6) was 0.78 µg/mL and the MIC [5] was 0.2 µg/mL. The MIC [6] was less than 0.006 µg/mL, the MIC [7] was 0.05 µg/mL and the MIC [8] was less than 0.006 µg/mL. It also gave an MIC [9] of 25 µg/mL, an MIC [10] of 0.025 µg/mL and an MIC [11] of 0.1 µg/mL. It also gave an MIC [12] of less than 0.006 µg/mL, an MIC [13] of 0.05 µg/mL and an MIC [14] of 0.2 µg/mL. For the same molecule, the MIC [15] was 0.025 µg/mL, the MIC [16] was 1.56 µg/mL and the MIC [17] was 0.025 µg/mL. It also gave an MIC [18] of 0.05 µg/mL, an MIC ([19]; E. cloacae 908RN, Table 6) of 0.2 µg/mL and an MIC ([19]; E. colacae 908RN, Table 5) of 0.2 µg/mL. The MIC [20] was 0.39 µg/mL, the MIC [21] was 0.1 µg/mL and the MIC [22] was 0.2 µg/mL. For the same molecule, the MIC [23] was 25 µg/mL, the MIC [24] was 1.56 µg/mL and the MIC [25] was 0.05 µg/mL. It also gave an MIC [26] of 0.05 µg/mL.
In the case of Cc1cc(SCC2=C(C(=O)O)N3C(=O)C(NC(=O)C(=NOC(C)(C)C(=O)NNC(=O)c4ccc(O)c(O)c4)c4csc(N)n4)C3SC2)n2nnnc2n1 (stereo not drawn) [Example 29, 7-{2-[2-amino-1,3-thiazol-4-yl]-2-[1-(3-(3,4-dihydroxybenzoyl)carbazoyl)-1-methylethoxyimino]acetamide}-3-[(5-methyltetrazolo[1,5-a]pyrimidin-7-yl)thiomethyl]-3-cephem-4-carboxylic acid.hydrochloride], the MIC [1] is reported as 0.78 µg/mL, the MIC [2] is reported as 0.78 µg/mL and the MIC [3] is reported as 0.025 µg/mL. For the same molecule, the MIC ([4]; Table 5) was 6.25 µg/mL, the MIC ([4]; Table 6) was 0.012 µg/mL and the MIC [5] was 0.39 µg/mL. For the same molecule, the MIC [6] was 0.012 µg/mL, the MIC [7] was 0.78 µg/mL and the MIC [8] was less than 0.006 µg/mL. For the same molecule, the MIC [9] was 1.56 µg/mL, the MIC [10] was 0.78 µg/mL and the MIC [11] was 0.2 µg/mL. For the same molecule, the MIC [12] was less than 0.006 µg/mL, the MIC [13] was 0.39 µg/mL and the MIC [14] was 0.39 µg/mL. For the same molecule, the MIC [15] was 0.78 µg/mL, the MIC [16] was 3.13 µg/mL and the MIC [17] was 0.2 µg/mL. It also gave an MIC [18] of 0.2 µg/mL, an MIC ([19]; E. cloacae 908RN, Table 6) of 3.13 µg/mL and an MIC ([19]; E. colacae 908RN, Table 5) of 6.25 µg/mL. It also gave an MIC [20] of 1.56 µg/mL, an MIC [21] of 0.78 µg/mL and an MIC [22] of 6.25 µg/mL. It also gave an MIC [23] of 3.13 µg/mL, an MIC [24] of 0.78 µg/mL and an MIC [25] of 12.5 µg/mL. It also gave an MIC [26] of 0.39 µg/mL.

Source: US4966900A, “Cephalosporin β-lactam compound and medicinal composition” (priority 1986, dated 1990)
